Read-outs that look alike come from different tables or passages of the source.
Assays:
[1] = Pharmacokinetic evaluation in rats (gavage); type: in vivo; conditions: rat, 10 mg/kg single oral gavage, plasma
Experimental: Test Embodiment 2: Pharmacokinetic Evaluation in Rats
The drug concentrations in the plasma of rats were tested at different times after the administration of the compounds by gavage using rats as test animals. The pharmacokinetic behavior of the compounds of the present disclosure in rats was studied and their pharmacokinetic characteristics were evaluated. In each group of embodiments, 3 rats with similar body weight were selected and administered orally at a dose of 10 mg/kg for a single administration. Blood was collected from animals at 15 min, 30 min, 1 h, 2 h, 4 h, 6 h, 8 h, 12 h, 24 h time points after administration. The LC-MS/MS analysis method was used to detect the content of the compound in plasma, and the lower limit of quantification of the method was 20 ng/mL. Concentration data in plasma was counted using the metabolic kinetic data analysis software WinNonlin 7.0, and the pharmacokinetic parameters were calculated using the non-compartmental analysis (NCA), as shown in Table 2 below.
Drug configuration: A certain amount of drug was taken, added with 2% Klucel LF+0.1% Tween 80 aqueous solution to prepare a clear solution or a uniform suspension.
Administration: Rats were administered by gavage after overnight fasting at a dose of 10 mg/kg.
Operation: Rats were administered by gavage, and blood was collected from the tail vein before administration and 15 min, 30 min, 1 h, 2 h, 4 h, 6 h, 8 h, 12 h, 24 h after administration, placed in heparinized sample tubes, centrifuged at 4° C., 3500 rpm for 10 min to separate plasma, stored at −20° C., and fed 2 hours after administration.
Determination of the content of test compounds in rat plasma after drug administration by gavage: 50 μL of plasma samples were thawed at room temperature, added with 130 μL of internal standard working solution (1000 ng/mL, acetonitrile, tolbutamide), vortexed for about 1 min and then centrifuged for 10 min at 4° C. and 13000 rpm. 50 μL of supernatant was mixed with 100 μL of 50% acetonitrile in water, and then the sample was injected for LC/MS/MS analysis.

[2] = target: T1, human GLP-1R receptor (Homo sapiens, UniProt P43220); test: GLP-1R cAMP assay (HTRF, HEK293 cells expressing GLP-1R); type: cell-based; conditions: agonistic activity, GLP-1R HEK293 cells
T1 construct: expressed in transfected cells; host or cells: 'GLP-1R cells' (frozen vial)
T1 sequence (P43220 24-463): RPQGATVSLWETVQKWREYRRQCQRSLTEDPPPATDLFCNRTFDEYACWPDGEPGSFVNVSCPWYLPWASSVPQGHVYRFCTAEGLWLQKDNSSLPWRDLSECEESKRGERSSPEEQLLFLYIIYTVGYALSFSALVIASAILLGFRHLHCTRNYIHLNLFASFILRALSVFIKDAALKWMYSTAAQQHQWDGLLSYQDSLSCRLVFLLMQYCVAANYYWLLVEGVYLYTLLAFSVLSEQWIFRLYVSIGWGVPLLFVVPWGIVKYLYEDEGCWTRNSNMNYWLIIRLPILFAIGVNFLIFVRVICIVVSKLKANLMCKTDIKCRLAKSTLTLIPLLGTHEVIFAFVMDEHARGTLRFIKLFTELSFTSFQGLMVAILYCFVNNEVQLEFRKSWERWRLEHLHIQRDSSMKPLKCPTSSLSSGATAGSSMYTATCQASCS
Experimental: Test Embodiment 1: Activity Test of GLP-1R cAMP Assay
This experiment aims to verify the agonistic activity of the compound of the present disclosure on human GLP-1R receptor.
Compounds were diluted 4-fold starting at 100 μM from DMSO using Bravo for a total of 10 points.
The reference compound polypeptide GLP-1 (7-37) was diluted 4-fold starting from 500 nM in DMSO using Bravo for a total of 10 points.
b) Preparation of Cell Suspension: • 1) 1 vial of GLP-1R cells was quickly thawed in a 37° C. water bath. • 2) The suspension of the cells was transferred to 10 mL of HBSS in a 15 mL conical tube. • 3) The cells were centrifuged at 1000 rpm for 5 min at room temperature to precipitate the cells. • 4) The supernatant was gently aspirated, and being careful not to aspirate the cells. • 5) The cells were relaxed by flicking the precipitation, and then the cell precipitation was re-suspended in 10 mL of HBSS. A sterile pipette was used to move fluid up and down to remove clumps. • 6) The concentration of cells was counted and the cell viability on Vi-cell was determined. • 7) GLP-1R cells were re-suspended in the test buffer at a concentration of 2.0×E5/mL cells. • 8) 10 μL of GLP-1R cell was transferred to OptiPlate-384 well plate.
c) Transfer of Compound: • 1) 100 nL of compound was transferred to OptiPlate-384 plate using Echo Transfer. • 2) The plate was rotated at 1000 rpm for 5 seconds.
d) HTRF cAMP Analysis of Agonists: • 1) The plate was incubated at room temperature for 30 minutes before adding detection reagents. • 2) An electric multi-channel pipette was used to add 10 μL of detection reagents respectively. • 3) The 384 well plate was covered with TopSeal-A membrane and incubated for 60 min at room temperature.
TopSeal-A was unloaded and read on EnVision.

[3] = Pharmacokinetic evaluation of cynomolgus monkey (IV and oral); type: in vivo, cynomolgus monkeys; conditions: for F: 50 mg/kg PO vs 1 mg/kg IV, oral bioavailability; for Cmax / Tmax / clearance / half-life / AUC(0-t) / concentration at 24 h: male, plasma; for AUC(0-t): read-out: AUC0-24 h; for concentration at 24 h: read-out: C24 h
Experimental: Test Embodiment 3: Pharmacokinetic Evaluation of Cynomolgus Monkey
The drug concentrations in the plasma of cynomolgus monkeys were tested at different times after intravenous injection and oral administration of the compounds using cynomolgus monkeys as test animals. The pharmacokinetic behavior of the compounds of the present disclosure in cynomolgus monkeys was studied and their pharmacokinetic characteristics were evaluated. In each group of embodiments, 2 cynomolgus monkeys with similar body weight were selected, administered at a dose of 1 mg/kg by intravenous injection and at a dose of 50 mg/kg by oral administration for a single administration.
Age of cynomolgus monkeys at the time of administration: about 2-4 years old; body weight: 3.0-4.6 kg at the beginning of administration; 4 monkeys; sex: male.
Intravenous group: The final concentration of 0.5 mg/mL was prepared for intravenous administration, and the preparation solvent was 5% DMSO+45% PEG400+50% water, and the preparation was in a clarified solution.
Oral group: The final concentration of 10 mg/mL was prepared for oral administration, and the preparation solvent was 5% DMSO+45% PEG400+50% water, and the preparation was in homogeneous suspension.
Blood was collected from animals at 5 min, 15 min, 30 min, 1 h, 2 h, 4 h, 7 h, 12 h, 24 h time points after administration. The LC-MS/MS analysis method was used to detect the content of the compound in plasma, and the lower limit of quantification of the method was 20 ng/mL. Concentration data in plasma was counted using the metabolic kinetic data analysis software WinNonlin 7.0, and the pharmacokinetic parameters were calculated using the non-compartmental analysis (NCA), as shown in Table 3 below.
Determination of the content of test compounds in the plasma of cynomolgus monkeys after drug administration: After blood samples were collected, placed in a marked ice-bath centrifuge tube, and rapidly centrifuged to separate the plasma. Centrifugation conditions: 4000 rpm, 10 minutes, 4° C., and plasma was stored at −40° C. or less for testing.

[4] = obese patients, cited from earlier work

Compound: O=C(O)c1ccc2nc(CN3CCC(c4ccccc4OCc4ccc(Cl)cc4F)CC3)n(C[C@@H]3CCO3)c2c1 [Compound 3]
- AUC(0-inf) [1]: 1030 ng·h/mL
- Cmax [1]: 1160 ng/mL
- Tmax [1]: 0.25 h
- half-life [1]: 2.58 h
- EC50 [2]: 0.9 nM
- F [3]: 51.2%
- Cmax ([3]; 1 mg/kg IV): 1590 ng/mL
- Tmax ([3]; 1 mg/kg IV): 0.083 h
- clearance ([3]; 1 mg/kg IV): 19.2 mL/min/kg
- half-life ([3]; 1 mg/kg IV): 0.98 h
- AUC(0-t) ([3]; 1 mg/kg IV): 898 ng·h/mL
- Cmax ([3]; 50 mg/kg PO): 2440 ng/mL
- Tmax ([3]; 50 mg/kg PO): 2.5 h
- half-life ([3]; 50 mg/kg PO): 22.6 h
- concentration at 24 h ([3]; 50 mg/kg PO): 597 ng/mL
- AUC(0-t) ([3]; 50 mg/kg PO): 23000 ng·h/mL

Compound: O=C(O)c1ccc2nc(CN3CCC(c4cccc(F)c4OCc4ccc(Cl)cc4F)CC3)n(C[C@@H]3CCO3)c2c1 [Compound 4]
- AUC(0-inf) [1]: 417 ng·h/mL
- Cmax [1]: 90 ng/mL
- Tmax [1]: 0.83 h
- half-life [1]: 2.11 h
- EC50 [2]: 0.7 nM

Compound: Cc1ccc(COc2ccccc2C2CCN(Cc3nc4ccc(C(=O)O)cc4n3C[C@@H]3CCO3)CC2)c(F)c1 [Compound 12]
- AUC(0-inf) [1]: 1320 ng·h/mL
- Cmax [1]: 1020 ng/mL
- Tmax [1]: 0.25 h
- half-life [1]: 2.68 h
- EC50 [2]: 1 nM

Compound: N#Cc1ccc(COc2cccc(C3CCN(Cc4nc5ccc(C(=O)O)cc5n4C[C@@H]4CCO4)CC3)n2)c(F)c1 [PF-06882961, reference compound]
- AUC(0-inf) [1]: 179 ng·h/mL
- Cmax [1]: 55 ng/mL
- Tmax [1]: 0.42 h
- half-life [1]: 6.88 h
- F [3]: 8.0%
- Cmax ([3]; 1 mg/kg IV): 2220 ng/mL
- Tmax ([3]; 1 mg/kg IV): 0.083 h
- clearance ([3]; 1 mg/kg IV): 15.9 mL/min/kg
- half-life ([3]; 1 mg/kg IV): 1.14 h
- AUC(0-t) ([3]; 1 mg/kg IV): 1070 ng·h/mL
- Cmax ([3]; 50 mg/kg PO): 2050 ng/mL
- Tmax ([3]; 50 mg/kg PO): 1.75 h
- half-life ([3]; 50 mg/kg PO): 10.9 h
- concentration at 24 h ([3]; 50 mg/kg PO): 41.4 ng/mL
- AUC(0-t) ([3]; 50 mg/kg PO): 4330 ng·h/mL

Compound: O=C(O)c1ccc2nc(CN3CCC(c4cccc(OCc5ccc(Cl)cc5F)n4)CC3)n(C[C@@H]3CCO3)c2c1 [Ref-01, reference compound]
- AUC(0-inf) [1]: 351 ng·h/mL
- Cmax [1]: 105 ng/mL
- Tmax [1]: 0.33 h
- half-life [1]: 3.2 h
- EC50 [2]: 1 nM

Compound: O=C(O)c1ccc2nc(CN3CCC(c4cccnc4OCc4ccc(Cl)cc4F)CC3)n(C[C@@H]3CCO3)c2c1 [Ref-02, reference compound]
- AUC(0-inf) [1]: 229 ng·h/mL
- Cmax [1]: 171 ng/mL
- Tmax [1]: 0.25 h
- half-life [1]: 5.52 h
- EC50 [2]: 1 nM

Compound: semaglutide
- patients with ≥5% weight loss ([4]; 2.4 mg group, 68 weeks): 86.4%
- decrease of mean baseline body weight ([4]; 2.4 mg, 68 weeks of treatment, baseline 105.3 kg): 14.9%
